In ChEMBL document CHEMBL1800006, “Azaphilones and p-terphenyls from the mangrove endophytic fungus Penicillium chermesinum (ZH4-E2) isolated from the South China Sea” (J Nat Prod, 2011):
pIC50: −log10 of the molar value.

Experiments:
[1] = Inhibition of alpha glucosidase by UV-[…] spectroscopy
[2] = molecular target: Acetylcholinesterase (Electrophorus electricus, UniProt O42275); experiment: Inhibition of electric eel AChE using acetylthiocholine chloride as substrate after 15 mins by Ellman's method
Sequence of Acetylcholinesterase (O42275 whole entry): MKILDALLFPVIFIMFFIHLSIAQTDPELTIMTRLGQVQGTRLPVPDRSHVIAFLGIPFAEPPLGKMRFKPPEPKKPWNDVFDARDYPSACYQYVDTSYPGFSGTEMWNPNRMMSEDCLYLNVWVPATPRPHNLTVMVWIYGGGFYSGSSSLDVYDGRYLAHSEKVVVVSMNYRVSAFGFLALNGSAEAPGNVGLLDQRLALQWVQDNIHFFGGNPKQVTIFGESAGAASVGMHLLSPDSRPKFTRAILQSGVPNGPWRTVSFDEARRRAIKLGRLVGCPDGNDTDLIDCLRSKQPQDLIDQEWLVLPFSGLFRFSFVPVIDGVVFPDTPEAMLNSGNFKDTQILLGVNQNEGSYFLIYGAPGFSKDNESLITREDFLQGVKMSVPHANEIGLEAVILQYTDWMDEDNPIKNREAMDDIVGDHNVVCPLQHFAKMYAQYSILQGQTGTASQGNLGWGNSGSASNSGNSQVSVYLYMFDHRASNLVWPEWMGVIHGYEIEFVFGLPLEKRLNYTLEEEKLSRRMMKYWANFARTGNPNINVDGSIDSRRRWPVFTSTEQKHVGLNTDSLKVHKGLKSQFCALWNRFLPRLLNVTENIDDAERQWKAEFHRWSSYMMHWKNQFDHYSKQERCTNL

**Q.** What does the source list for `CC[C@H](C)C(=O)[C@H]1C(=O)O[C@@]2(C)C(=O)C=C3C=C(C)OC=C3[C@H]12` [CHERMESINONE B]?
**A.** pIC50 [1]: < 4.00; pIC50 [2]: < 4.00

**Q.** Which results are given for `CC[C@H](C)C(=O)C[C@H]1C2=COC(C)=CC2=CC(=O)[C@]1(C)O` [CHERMESINONE A]?
**A.** pIC50 [1]: 4.61; pIC50 [2]: < 4.00

**Q.** Which results are given for `COc1c(-c2ccc(O)cc2)cc(O)c2c1oc1cc(O)c(O)cc12`?
**A.** pIC50 [1]: < 4.00; pIC50 [2]: 5.11

**Q.** With `COc1c(-c2ccc(O)c(O)c2)cc(O)c(-c2ccc(O)c(O)c2)c1O` as the molecule, how does the pIC50 [1] read?
**A.** Its pIC50 is 5.54.

**Q.** What about the pIC50 [2] of the same molecule?
**A.** Its pIC50 is < 4.00.

**Q.** With `COc1c(-c2ccc(O)c(O)c2)cc(O)c2c1oc1cc(O)c(O)cc12` [6'-DESMETHYLCANDIDUSIN B] as the molecule, how does the pIC50 [1] read?
**A.** Its pIC50 is < 4.00.

**Q.** And the pIC50 [2]?
**A.** The pIC50 was 5.28.

**Q.** With `O=c1c(-c2ccc(O)cc2)coc2cc(O)cc(O)c12` [GENISTEIN] as the molecule, how does the pIC50 [1] read?
**A.** The pIC50 was 5.01.

**Q.** With `CC[C@H](C)C(=O)[C@H]1C(=O)O[C@@]2(C)C(=O)C=C3C=C(C)O[C@H](O)[C@H]3[C@H]12` [CHERMESINONE C] as the molecule, how does the pIC50 [1] read?
**A.** The pIC50 was < 4.00.

**Q.** What about the pIC50 [2] of the same molecule?
**A.** The pIC50 was < 4.00.

**Q.** With `COc1c(-c2ccc(O)cc2)cc(O)c(-c2ccc(O)c(O)c2)c1O` as the molecule, how does the pIC50 [1] read?
**A.** The pIC50 was 5.31.

**Q.** And the pIC50 [2]?
**A.** The pIC50 was < 4.00.

**Q.** What does the source list for `COc1c(-c2ccc(O)cc2)cc(O)c(-c2ccc(O)cc2)c1O`?
**A.** pIC50 [1]: 6.05; pIC50 [2]: < 4.00
